Source: article PMC10041525, “New Dual Inhibitors of Bacterial Topoisomerases with Broad-Spectrum Antibacterial Activity and In Vivo Efficacy against Vancomycin-Intermediate Staphylococcus aureus” (Journal of Medicinal Chemistry, 2023)
Values after ≈ are worked out from the molar mass of the structure shown. Like-named read-outs stand apart in the source and are kept apart here.

Tests used:
[1] = tested on: Haemophilus influenzae (n = 14); test: MIC broth microdilution at IHMA Europe; type: cell-based, H. influenzae; conditions: for MIC: Haemophilus influenzae, read-out: MIC
[2] = tested on: S. pneumoniae (n = 12); test: MIC broth microdilution at IHMA Europe; type: cell-based; conditions: for MIC: Streptococcus pneumoniae, read-out: MIC
[3] = tested on: E. faecalis ATCC 29212; test: IHMA QC MIC; type: cell-based
Description: (§1) Supplement jm2c01905_si_004.xlsx, sheet "QC" | column: MIC [µg/mL]

[4] = tested on: H. influenzae ATCC 49247; test: IHMA QC MIC; type: cell-based; conditions: Haemophilus influenzae, read-out: MIC
Description: as §1

[5] = tested on: H. influenzae ATCC 49766; test: IHMA QC MIC; type: cell-based
Description: as §1

[6] = tested on: S. pneumoniae ATCC 49619; test: IHMA QC MIC; type: cell-based
Description: as §1

[7] = tested on: E. faecalis ATCC 29212; design: method as in earlier work; conditions: QC range for E. faecalis ATCC 29212, ref CLSI; cited from earlier work
[8] = tested on: H. influenzae ATCC 49247; design: method as in earlier work; conditions: QC range for H. influenzae ATCC 49247, ref CLSI; cited from earlier work

Molecule `CC1(C)S[C@@H]2[C@H](NC(=O)[C@H](N)c3ccccc3)C(=O)N2[C@H]1C(=O)O` [Ampicillin, ampicillin] has an MIC ([1]; H. influenzae IHMA N° 1227715) of 16 µg/mL (≈ 45.8 µM), an MIC ([1]; H. influenzae IHMA N° 1241620) of 4 µg/mL (≈ 11.4 µM) and an MIC ([1]; H. influenzae IHMA N° 1244149) of 16 µg/mL (≈ 45.8 µM). The MIC ([1]; H. influenzae IHMA N° 1249803) was 2 µg/mL (≈ 5.72 µM), the MIC ([1]; H. influenzae IHMA N° 1254355) was 2 µg/mL (≈ 5.72 µM) and the MIC ([1]; H. influenzae IHMA N° 1258580) was 16 µg/mL (≈ 45.8 µM). The MIC ([1]; H. influenzae IHMA N° 1262734) was 8 µg/mL (≈ 22.9 µM), the MIC ([1]; H. influenzae IHMA N° 1272723) was 16 µg/mL (≈ 45.8 µM) and the MIC ([1]; H. influenzae IHMA N° 1286846) was 8 µg/mL (≈ 22.9 µM). The MIC ([1]; H. influenzae IHMA N° 1337530) was 32 µg/mL (≈ 91.6 µM), the MIC ([1]; H. influenzae IHMA N° 1440085) was 8 µg/mL (≈ 22.9 µM) and the MIC ([1]; H. influenzae IHMA N° 1479509) was 8 µg/mL (≈ 22.9 µM). The MIC ([1]; H. influenzae IHMA N° 1952952) was 4 µg/mL (≈ 11.4 µM), the MIC ([1]; H. influenzae IHMA N° 2047461) was 32 µg/mL (≈ 91.6 µM) and the “Cumulative % at MIC” value ([1]; MIC 2 µg/mL) was 14.3%. The “No. of isolates at MIC” value ([1]; MIC 2 µg/mL) was 2, the “Cumulative % at MIC” value ([1]; MIC […] µg/mL) was 85.7% and the “No. of isolates at MIC” value ([1]; MIC […] µg/mL) was 4. For the same molecule, the “Cumulative % at MIC” value ([1]; MIC 32 µg/mL) was 100.0%, the “No. of isolates at MIC” value ([1]; MIC 32 µg/mL) was 2 and the “Cumulative % at MIC” value ([2]; MIC 0.5 µg/mL) was 25.0%. The “No. of isolates at MIC” value ([2]; MIC 0.5 µg/mL) was 2, the “Cumulative % at MIC” value ([2]; MIC 1 µg/mL) was 33.3% and the “No. of isolates at MIC” value ([2]; MIC 1 µg/mL) was 1. For the same molecule, the “Cumulative % at MIC” value ([2]; MIC 2 µg/mL) was 66.7%, the “No. of isolates at MIC” value ([2]; MIC 2 µg/mL) was 4 and the “No. of isolates at MIC” value ([2]; MIC […] µg/mL) was 2. The “Cumulative % at MIC” value ([2]; MIC ≤0.03 µg/mL) was 8.3%, the “No. of isolates at MIC” value ([2]; MIC ≤0.03 µg/mL) was 1 and the MIC ([2]; S. pneumoniae IHMA N° 1775387) was 4 µg/mL (≈ 11.4 µM). It also gave an MIC ([2]; S. pneumoniae IHMA N° 1776057) of 2 µg/mL (≈ 5.72 µM), an MIC ([2]; S. pneumoniae IHMA N° 1785617) of 8 µg/mL (≈ 22.9 µM) and an MIC ([2]; S. pneumoniae IHMA N° 1800765) of 0.5 µg/mL (≈ 1.43 µM). The MIC ([2]; S. pneumoniae IHMA N° 1811259) was 2 µg/mL (≈ 5.72 µM), the MIC ([2]; S. pneumoniae IHMA N° 1831562) was ≤ 0.03 µg/mL and the MIC ([2]; S. pneumoniae IHMA N° 1902609) was 4 µg/mL (≈ 11.4 µM). For the same molecule, the MIC ([2]; S. pneumoniae IHMA N° 1979675) was 2 µg/mL (≈ 5.72 µM), the MIC ([2]; S. pneumoniae IHMA N° 1991963) was 1 µg/mL (≈ 2.86 µM) and the MIC ([2]; S. pneumoniae IHMA N° 2057487) was 2 µg/mL (≈ 5.72 µM). It also gave an MIC ([2]; S. pneumoniae IHMA N° 2073087) of 8 µg/mL (≈ 22.9 µM), an MIC ([2]; S. pneumoniae IHMA N° 2117109) of 0.5 µg/mL (≈ 1.43 µM) and an MIC ([3]; Enterococcus faecalis, ATCC29212, QC strain E. faecalis ATCC 29212, test date 2021-11-11, read-out: MIC) of 1 µg/mL (≈ 2.86 µM). The MIC ([3]; QC strain E. faecalis ATCC 29212, test date 2021-11-26) was 1 µg/mL (≈ 2.86 µM), the MIC ([4]; ATCC49247, QC strain H. influenzae ATCC 49247, test date 2021-11-11) was 4 µg/mL (≈ 11.4 µM) and the MIC ([4]; ATCC49247, QC strain H. influenzae ATCC 49247, test date 2021-11-26) was 4 µg/mL (≈ 11.4 µM). The MIC ([5]; Haemophilus influenzae, ATCC49766, QC strain H. influenzae ATCC 49766, test date 2021-11-11, read-out: MIC) was 0.12 µg/mL (≈ 0.343 µM), the MIC ([5]; QC strain H. influenzae ATCC 49766, test date 2021-11-26) was 0.12 µg/mL (≈ 0.343 µM) and the MIC ([6]; QC strain S. pneumoniae ATCC 49619, test date 2021-11-26) was 0.06 µg/mL (≈ 0.172 µM). For the same molecule, the MIC ([6]; Streptococcus pneumoniae, ATCC49619, QC strain S. pneumoniae ATCC 49619, test date 2021-11-11, read-out: MIC) was 0.06 µg/mL (≈ 0.172 µM), the “MIC, CLSI Range” value [7] was 0,5 - 2 µg/mL and the “MIC, CLSI Range” value [8] was 2 to 8 µg/mL.
